Measurements reported in patent publication US20250084097A1, “MACROCYCLIC AMIDE COMPOUNDS AND APPLICATION THEREOF” (Medshine Discovery Inc., priority 2021, published 2025).

Key:
Test in all cases: Cytochrome P450 isoenzyme inhibition, human liver microsomes
Format in all cases: in vitro ADME
CYP2C19 = target: T1, CYP2C19 (Homo sapiens, UniProt P33261); details: read-out: Cytochrome P450 isoenzyme inhibitory concentration CYP2C19
T1 construct: from tissue; host or cells: human liver microsomes
Protocol: (§1) The purpose of this study was to determine the inhibitory effect of test compounds on the activity of human liver microsomal cytochrome P450 isoenzymes (CYP1A2, CYP2C9, CYP2C19, CYP2D6 and CYP3A4).
(§2) Working solutions (100×final concentration) with concentrations of 5.00, 1.50, 0.500, 0.150, 0.0500, 0.0150, and 0.00500 mM were prepared by gradient dilution of the test compound (10.0 mM), while working solutions of each positive inhibitor and its specific substrate mixtures of P450 isozymes (CYP1A2, CYP2C9, CYP2C19, CYP2D6, and CYP3A4) were prepared; human liver microsomes stored in a refrigerator below −60° C. were thawed on ice; after all the human liver microsomes were thawed, the human liver microsomes were diluted with Potassium phosphate buffer (PB) to prepare a certain concentration of working solution (0.253 mg/ml).
(§3) First, 20.0 μL of the substrate mixture was added to a reaction plate (20.0 μL of PB was added to the Blank well), then 158 μL of human liver microsomal working solution was added to the reaction plate, and the reaction plate was placed on ice for use; at this time, 2.00 μL of each concentration of the test compound (N=1) and specific inhibitor (N=2) were added to the corresponding wells, and to the group without inhibitor (test compound or positive inhibitor) was added the corresponding organic solvent as control samples (1:1 DMSO:MeOH for the control sample of the test compound, and 1:9 DMSO:MeOH for all the positive control samples); after pre-incubation in a water bath at 37° C. for 10 min, 20.0 μL of cofactor (NADPH) solution was added to the reaction plate, and the reaction plate was incubated in a water bath at 37° C. for 10 min; The reaction was terminated by adding 400 μL of pre-cooled acetonitrile solution (containing 200 ng/mL Tolbutamide and Labetalol internal standard); the reaction plate was shaken on a shaker for 10 min; then centrifuged at 4000 rpm at 4° C. for 20 min; 200 μL of the supernatant was added to 100 μL of water to dilute the samples; and the plate was sealed, shaken for 10 min to mix well, and then analyzed by LC/MS/MS.
(§4) The rate of production of metabolites of each probe substrate was used to reflect the activity of each CYP isozyme. The activity of each isozyme in the solvent control incubation system without test article or positive inhibitor was set to be 100%, and the rate of production of metabolites of the probe substrate with different concentrations of test article or positive inhibitor was divided by the rate of production of metabolites of the solvent control samples, and then multiplied by 100% as the percentage of residual activity of each isozyme. The IC50 values of the test article and each positive inhibitor were calculated by nonlinear regression analysis using three or four parameters in XL fit software with the percentage of residual activity as the vertical coordinate and the inhibitor concentration as the horizontal coordinate. The IC50 values were labeled as “>50 μM” when the IC50 fitted by XL fit software was greater than the highest administered concentration (50 μM) or when the IC50 could not be fitted.

CYP2D6 = target: T2, CYP2D6 (Homo sapiens, UniProt P10635); details: read-out: Cytochrome P450 isoenzyme inhibitory concentration CYP2D6
T2 construct: from tissue; host or cells: human liver microsomes
Protocol: as §1, §2, §3, §4

CYP2C9 = target: T3, CYP2C9 (Homo sapiens, UniProt P11712); details: read-out: Cytochrome P450 isoenzyme inhibitory concentration CYP2C9
T3 construct: from tissue; host or cells: human liver microsomes
Protocol: as §1, §2, §3, §4

CYP3A4 = target: T4, CYP3A4 (Homo sapiens, UniProt P08684); details: read-out: Cytochrome P450 isoenzyme inhibitory concentration CYP3A4
T4 construct: from tissue; host or cells: human liver microsomes
Protocol: as §1, §2, §3, §4

CYP1A2 = target: T5, CYP1A2 (Homo sapiens, UniProt P05177); details: read-out: Cytochrome P450 isoenzyme inhibitory concentration CYP1A2
T5 construct: from tissue; host or cells: human liver microsomes
Protocol: as §1, §2, §3, §4

T2 sequence (P10635 whole entry): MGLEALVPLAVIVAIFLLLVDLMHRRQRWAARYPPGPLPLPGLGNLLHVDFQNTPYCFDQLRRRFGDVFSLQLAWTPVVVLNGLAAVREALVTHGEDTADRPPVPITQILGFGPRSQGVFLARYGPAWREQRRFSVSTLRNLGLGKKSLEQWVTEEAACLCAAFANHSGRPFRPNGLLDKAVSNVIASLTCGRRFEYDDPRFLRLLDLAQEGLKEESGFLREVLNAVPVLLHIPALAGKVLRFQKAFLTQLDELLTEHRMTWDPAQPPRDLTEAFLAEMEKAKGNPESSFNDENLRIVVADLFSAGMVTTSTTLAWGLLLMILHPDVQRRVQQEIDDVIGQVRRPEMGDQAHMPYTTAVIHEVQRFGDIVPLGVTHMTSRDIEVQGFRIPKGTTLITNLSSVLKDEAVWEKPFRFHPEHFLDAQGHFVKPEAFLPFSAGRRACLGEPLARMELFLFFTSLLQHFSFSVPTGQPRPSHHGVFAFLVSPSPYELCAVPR
T4 sequence (P08684 whole entry): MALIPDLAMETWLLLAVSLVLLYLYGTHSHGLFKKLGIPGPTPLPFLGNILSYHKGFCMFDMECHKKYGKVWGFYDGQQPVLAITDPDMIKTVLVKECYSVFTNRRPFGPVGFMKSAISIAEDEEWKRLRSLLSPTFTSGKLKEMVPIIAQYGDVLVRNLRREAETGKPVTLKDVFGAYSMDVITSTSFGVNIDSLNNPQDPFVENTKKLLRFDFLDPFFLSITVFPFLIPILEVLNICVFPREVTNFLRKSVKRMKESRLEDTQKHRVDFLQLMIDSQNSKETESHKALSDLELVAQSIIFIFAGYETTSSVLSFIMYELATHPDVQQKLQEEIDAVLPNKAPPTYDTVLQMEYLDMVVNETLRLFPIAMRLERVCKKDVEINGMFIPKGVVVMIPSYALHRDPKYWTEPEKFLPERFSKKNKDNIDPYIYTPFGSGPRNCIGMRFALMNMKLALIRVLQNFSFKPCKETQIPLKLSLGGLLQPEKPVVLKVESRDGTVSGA
T5 sequence (P05177 whole entry): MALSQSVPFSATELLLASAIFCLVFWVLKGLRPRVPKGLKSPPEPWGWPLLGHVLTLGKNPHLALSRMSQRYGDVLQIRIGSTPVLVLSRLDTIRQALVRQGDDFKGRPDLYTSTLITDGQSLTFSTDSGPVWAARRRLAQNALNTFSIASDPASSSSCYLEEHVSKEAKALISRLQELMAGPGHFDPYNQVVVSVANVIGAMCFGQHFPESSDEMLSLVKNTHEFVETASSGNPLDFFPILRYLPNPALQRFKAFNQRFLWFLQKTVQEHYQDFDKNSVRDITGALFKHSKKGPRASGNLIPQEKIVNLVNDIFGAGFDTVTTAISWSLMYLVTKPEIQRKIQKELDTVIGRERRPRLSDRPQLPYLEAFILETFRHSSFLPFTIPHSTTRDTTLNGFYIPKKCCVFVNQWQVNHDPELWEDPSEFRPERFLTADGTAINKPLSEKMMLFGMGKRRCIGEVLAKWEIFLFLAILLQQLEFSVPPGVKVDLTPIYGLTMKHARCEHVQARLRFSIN
T3 sequence (P11712 whole entry): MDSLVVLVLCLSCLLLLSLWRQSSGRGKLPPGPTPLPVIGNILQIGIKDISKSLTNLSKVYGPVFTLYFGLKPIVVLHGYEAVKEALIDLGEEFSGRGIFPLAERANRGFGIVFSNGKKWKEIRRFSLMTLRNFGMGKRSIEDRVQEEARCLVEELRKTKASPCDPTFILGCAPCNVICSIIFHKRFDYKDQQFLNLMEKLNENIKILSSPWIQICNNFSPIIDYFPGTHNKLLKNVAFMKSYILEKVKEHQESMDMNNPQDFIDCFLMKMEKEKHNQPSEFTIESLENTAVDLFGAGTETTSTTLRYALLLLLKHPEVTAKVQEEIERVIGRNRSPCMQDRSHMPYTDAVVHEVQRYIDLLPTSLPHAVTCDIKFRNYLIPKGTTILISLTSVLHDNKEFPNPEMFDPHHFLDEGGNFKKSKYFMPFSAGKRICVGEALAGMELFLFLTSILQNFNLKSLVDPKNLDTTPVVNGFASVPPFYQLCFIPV
T1 sequence (P33261 whole entry): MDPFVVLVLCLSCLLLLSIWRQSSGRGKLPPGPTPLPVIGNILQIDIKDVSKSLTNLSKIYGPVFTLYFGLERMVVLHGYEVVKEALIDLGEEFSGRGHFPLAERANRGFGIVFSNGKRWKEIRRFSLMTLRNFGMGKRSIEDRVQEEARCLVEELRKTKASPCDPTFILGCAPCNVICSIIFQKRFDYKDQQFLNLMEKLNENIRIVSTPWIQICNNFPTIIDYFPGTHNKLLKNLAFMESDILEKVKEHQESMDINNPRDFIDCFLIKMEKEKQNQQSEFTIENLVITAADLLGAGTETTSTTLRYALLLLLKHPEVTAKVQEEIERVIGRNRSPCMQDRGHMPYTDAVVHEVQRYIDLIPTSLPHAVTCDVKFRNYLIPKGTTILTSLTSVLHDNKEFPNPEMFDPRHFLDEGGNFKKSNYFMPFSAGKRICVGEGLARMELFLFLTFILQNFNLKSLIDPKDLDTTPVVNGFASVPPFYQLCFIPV

SMILES	IC50 (CYP2C19) [µM]	IC50 (CYP2D6) [µM]	IC50 (CYP2C9) [µM]	IC50 (CYP3A4) [µM]	IC50 (CYP1A2) [µM]
Cc1cc2cc(n1)-c1cnn(C)c1OC[C@H]1CC[C@H](C1)CN1/C(=N/C2=O)Nc2ccc(N=S(C)(C)=O)cc21 (single isomer, unassigned) [WX-027A]	9.8	> 50	14	20	> 50
Cc1cc2cc(n1)-c1cnn(C)c1OCCC[C@@H](C)CN1/C(=N/C2=O)Nc2ccc(N=S(C)(C)=O)c(Cl)c21 [WX-019]	3.4	> 50	31	> 50	> 50
